Measurements: US9321750B2, “ROR modulators and their uses” (INNOV17 LLC, priority 2012, dated 2016)

Columns and labels:
[1] = TH17 cell viability (Prestoblue); assay type: cell-based; design: concentration or dose not given beside the values; conditions: human; percentage of DMSO treated cells; read-out: % viability of compound treated TH17 cells
Protocol: (§1) Peripheral blood mononuclear cells (PBMCs) were sourced from freshly prepared leukocyte enriched plasma (buffy coat) from healthy volunteers from which PBMCs were isolated by density gradient centrifugation using Ficoll-Paque™ PLUS (GE Healthcare). Naïve CD4+ T cells were isolated using the Naïve CD4+ T cell Isolation Kit II (Miltenyi Biotec) as per manufacturer's instructions. CD4+ T cells were plated at 5×10^4 cells/well in 96 well plates pre-coated with immobilized human (h)-αCD3 antibody (eBioscience) then differentiated to TH17 cells using h-αCD28, h-αIFNγ, h-αIL4, h-IL6, h-IL23, h-IL1β, h-TGFβ1 (eBioscience) and maintained in a cell culture incubator at 37° C. with 5% CO2 in TexMACS Medium (Miltenyi Biotec) supplemented with 1% Penicillin/Streptomycin (Lonza) over 5 days.
Cells were assayed for viability in the presence or absence of compound using Prestoblue® Cell Viability Reagent (Life Technologies) as per manufacturer's instructions after 30 minutes incubation of TH17 cells with reagent. Absorbance was measured at 570 nm and 600 nm using a microplate reader (Perkin Elmer) and data were analyzed as per manufacturer's instructions. Cell viability was expressed as a percentage of DMSO treated cells.

[2] = target: T1, RORα LBD (Homo sapiens (Human), UniProt P35398); assay: TR-FRET co-activator D22 interaction with RORα LBD; assay type: biochemical
T1 sequence (P35398 272-510): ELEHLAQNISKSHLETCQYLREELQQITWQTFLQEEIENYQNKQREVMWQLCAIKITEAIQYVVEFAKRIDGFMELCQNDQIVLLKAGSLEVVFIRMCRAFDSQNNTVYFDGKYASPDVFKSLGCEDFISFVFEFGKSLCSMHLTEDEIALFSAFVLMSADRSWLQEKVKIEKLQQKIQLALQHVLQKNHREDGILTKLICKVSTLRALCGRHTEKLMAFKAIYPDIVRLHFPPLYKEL
Source text: (§2) The Time-Resolved Fluorescence Resonance Energy Transfer (TR-FRET) assay kit (Life Technologies) was used to measure compound efficacy to disrupt or enhance ligand-mediated interaction of the co-activator and co-repressor peptides with the purified GST-tagged (i) RORγ LBD or (ii) […]. The RORγ LBD and RORα LBD each have a basal level of interaction with the co-activator D22 or co-repressor NCoR1-D2 in the absence of ligand, thus it is possible to identify compounds that inhibit or induce RORγ and/or RORα co-activator/co-repressor interactions, thus determining RORα, RORγ, or RORα/RORγ compound selectivity. The assay was performed as per manufacturer's instructions and TR-FRET was assessed 2 and 20 hours post-assay initiation. Compounds were identified to (i) have no impact on either co-activator displacement or […] from the assessed LBD (ii) promote co-activator displacement from the assessed LBD (iii) promote co-repressor recruitment to the assessed LBD or (iv) concurrently promote co-activator displacement from the assessed LBD and co-repressor recruitment to the assessed LBD.

[3] = test system: IL-17A; assay: TH17 cytokine inhibition as measured by ELISA: IL-17A; assay type: cell-based; conditions: 120 h; human TH17 cells, 5 days differentiation, ELISA of supernatant
Protocol: as §1
(§3) Human CD4+ T cells were differentiated to TH17 cells as described in the presence or absence of various concentrations of compounds in a final concentration of 0.1% DMSO in TexMACS medium. Supernatants were collected and stored at −20° C. until they were to be assayed for IL-17A, IL-17F, IL-17AF, IL-21 and/or IL-22 levels as determined by Ready-Set-Go ELISA kits (eBioscience) as per manufacturer's instructions. Endpoint absorbance was read at 450 nm and 570 nm according to manufacturer's instructions (eBioscience) using a microplate reader (Perkin Elmer). The percentage of cytokine inhibition was calculated with reference to DMSO treated cells and the IC50s were determined by GraphPad Prism software and presented in the table below.

[4] = test system: IL-22; assay: TH17 cytokine inhibition as measured by ELISA: IL-22; assay type: cell-based; conditions: 120 h; human TH17 cells, 5 days differentiation, ELISA of supernatant
Protocol: as §1, §3

[5] = target: T2, RORγ LBD (Homo sapiens (Human), UniProt P51449); assay: TR-FRET co-repressor NCoR1-D2 interaction with RORγ LBD; assay type: biochemical
T2 sequence (P51449 269-508): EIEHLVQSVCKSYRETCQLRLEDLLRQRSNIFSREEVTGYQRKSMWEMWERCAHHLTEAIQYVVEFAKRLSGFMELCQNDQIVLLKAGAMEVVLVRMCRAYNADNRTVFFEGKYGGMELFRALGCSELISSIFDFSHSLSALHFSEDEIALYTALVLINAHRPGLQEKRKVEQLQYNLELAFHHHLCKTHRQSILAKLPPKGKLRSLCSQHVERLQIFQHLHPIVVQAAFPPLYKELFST
Source text: as §2

[6] = test system: IL-17F; assay: TH17 cytokine inhibition as measured by ELISA: IL-17F; assay type: cell-based; conditions: 120 h; human TH17 cells, 5 days differentiation, ELISA of supernatant
Protocol: as §1, §3

[7] = target: T2, RORγ LBD; assay: TR-FRET co-activator D22 interaction with RORγ LBD; assay type: biochemical
Source text: as §2

[8] = target: T1, RORα LBD; assay: TR-FRET co-repressor NCoR1-D2 interaction with RORα LBD; assay type: biochemical
Source text: as §2

[9] = test system: TH17 cells; assay: TH17 cellular proliferation (Prestoblue); assay type: cell-based; conditions: Homo sapiens, 120 h; 3 μM compound, after 5 day TH17 differentiation, relative to DMSO treated TH17 cells; read-out: % change in TH17 cell number
Protocol: as §1
Cellular proliferation was assessed in the presence or absence of 3 μM compound using Prestoblue® Cell Viability Reagent (Life Technologies) as per manufacturer's instructions using absorbance as the output measured by a microplate reader (Perkin Elmer) after 30 minutes of incubation of cells and reagent. A standard curve developed by plotting varying cell numbers versus absorbance was used to assess differences in cellular proliferation between compound treated or untreated cells after the 5 day TH17 differentiation period.

[10] = 2 hr, read-out: RORα EC50 D22 co-activator displacement 2 hr
[11] = 20 hr, read-out: RORα EC50 D22 co-activator displacement 20 hr
[12] = 2 hr, read-out: RORγ EC50 NCoR1-D2 co-repressor recruitment 2 hr
[13] = 20 hr, read-out: RORγ EC50 NCoR1-D2 co-repressor recruitment 20 hr
[14] = 2 hr, co-activator recruitment (π), read-out: RORγ EC50 D22 2 hr (demonstrates co-activator recruitment)
[15] = 20 hr, read-out: RORγ EC50 D22 co-activator displacement 20 hr
[16] = 2 hr, read-out: RORα EC50 NCoR1-D2 co-repressor recruitment 2 hr
[17] = 20 hr, read-out: RORα EC50 NCoR1-D2 co-repressor recruitment 20 hr
[18] = 2 hr, read-out: RORγ EC50 D22 co-activator displacement 2 hr
[19] = 2 hr, co-activator recruitment (π), read-out: RORα EC50 D22 2 hr (demonstrates co-activator recruitment)
[20] = 20 hr, co-activator recruitment (π), read-out: RORα EC50 D22 20 hr (demonstrates co-activator recruitment)

SMILES	viability [1] [%]	EC50 [2, 10] [µM]	EC50 [2, 11] [µM]	IC50 [3] [µM]	IC50 [4] [µM]	EC50 [5, 12] [µM]	EC50 [5, 13] [µM]	IC50 [6] [µM]	EC50 [7, 14] [µM]	EC50 [7, 15] [µM]	EC50 [8, 16] [µM]	EC50 [8, 17] [µM]	inhibition at 3 µM [9] [%]	EC50 [7, 18] [µM]	EC50 [2, 19] [µM]	EC50 [2, 20] [µM]	EC50 ([7]; 20 hr, co-activator recruitment (π), read-out: RORγ EC50 D22 20 hr (demonstrates co-activator recruitment)) [µM]	EC50 ([8]; 20 hr, co-repressor displacement (Ω), read-out: RORα EC50 NCoR1-D2 20 hr (demonstrates co-repressor displacement)) [µM]
CC(=O)Nc1ccc2c(c1)CCN2Cc1ccc(C(=O)N(C)c2ccccc2)cc1 [Example 14, 4-((5-acetamidoindolin-1-yl)methyl)-N-methyl-N-phenylbenzamide]	> 80	> 30	> 30	< 10	< 10	> 30	> 30	< 10	< 30	> 30	> 30	> 30	–	–	–	–	–	–
CC(=O)Nc1ccc2c(ccn2Cc2ccc(C(O)(C(F)(F)F)C(F)(F)F)cc2)c1 [Example 16, N-(1-(4-(1,1,1,3,3,3-hexafluoro-2-hydroxypropan-2-yl)benzyl)-1H-indol-5-yl)acetamide]	> 80	< 30	> 30	< 10	< 10	> 30	> 30	< 10	–	< 30	> 30	< 30	≤ 50	< 30	–	–	–	–
CC(=O)Nc1ccc2c(c1)CCN2Cc1ccc(-c2cc(C)n[nH]2)cc1 [Example 9, N-(1-(4-(3-methyl-1H-pyrazol-5-yl)benzyl)indolin-5-yl)acetamide]	> 80	> 30	> 30	< 10	< 10	> 30	> 30	< 10	–	> 30	> 30	> 30	–	> 30	–	–	–	–
CC(=O)Nc1ccc2c(c1)CCN2Cc1ccc(C2(O)CCC2)cc1 [Example 10, N-(1-(4-(1-hydroxycyclobutyl)benzyl)indolin-5-yl)acetamide]	> 80	< 30	< 30	> 10	< 10	> 30	> 30	> 10	–	> 30	> 30	> 30	–	> 30	–	–	–	–
CC(=O)Nc1ccc2c(c1)CCN2Cc1ccc(C(F)(F)F)cc1 [Example 7, N-(1-(4-(trifluoromethyl)benzyl)indolin-5-yl)acetamide]	> 80	> 30	> 30	< 10	< 10	> 30	> 30	< 10	–	< 30	> 30	> 30	≤ 50	> 30	–	–	–	–
CC(=O)Nc1ccc2c(c1)CCN2Cc1ccc(C(=O)Nc2ccccc2)cc1 [Example 15, 4-((5-acetamidoindolin-1-yl)methyl)-N-phenylbenzamide]	> 80	> 30	> 30	< 10	< 10	> 30	> 30	< 10	–	< 30	> 30	> 30	≤ 50	< 30	–	–	–	–
CC(=O)Nc1ccc2c(c1)CCN2Cc1ccc(C(N)=O)cc1 [Example 11, 4-((5-acetamidoindolin-1-yl)methyl)benzamide]	> 80	–	–	> 10	> 10	> 30	> 30	> 10	< 30	> 30	> 30	> 30	≤ 50	–	< 30	< 30	–	–
CNC(=O)c1ccc(CN2CCc3cc(NC(C)=O)ccc32)cc1 [Example 12, 4-((5-acetamidoindolin-1-yl)methyl)-N-methylbenzamide]	> 80	–	–	> 10	> 10	> 30	> 30	> 10	< 30	–	> 30	–	≤ 50	–	< 30	< 30	< 30	< 30
CC(=O)Nc1ccc2c(c1)CCN2Cc1ccc(C(=O)N(C)C)cc1 [Example 13, 4-((5-acetamidoindolin-1-yl)methyl)-N,N-dimethylbenzamide]	> 80	> 30	> 30	> 10	> 10	> 30	> 30	> 10	–	> 30	> 30	> 30	≤ 50	> 30	–	–	–	–
CC(=O)Nc1ccc2c(c1)CCN2Cc1ccc(C(C)C)cc1 [Example 8, N-(1-(4-isopropylbenzyl)indolin-5-yl)acetamide]	> 80	> 30	> 30	< 10	< 10	> 30	> 30	< 10	–	< 30	> 30	> 30	≤ 50	< 30	–	–	–	–
